Laboratory results taken from ChEMBL document CHEMBL1795335, “Synthesis of novel 1,2,4-oxadiazoles and analogues as potential anticancer agents” (Eur J Med Chem, 2011).
pIC50: −log10 of the molar value.

Key:
Type in all cases: functional, cell-based
[1] = test system: PC-3; test: Cytotoxicity against human PC3 cells after 48 hrs by MTT assay; settings: PC-3, 48 h
[2] = test system: DU-145; test: Cytotoxicity against human DU145 cells after 48 hrs by MTT assay; settings: DU-145, 48 h
[3] = test system: LNCaP; test: Cytotoxicity against human LNCAP cells after 48 hrs by MTT assay
[4] = test system: MCF7; test: Cytotoxicity against human MCF7 cells after 48 hrs by MTT assay; settings: MCF7, 48 h
[5] = test system: MDA-MB-231; test: Cytotoxicity against human MDA-MB-231 cells after 48 hrs by MTT assay; settings: MDA-MB-231, 48 h
[6] = test system: MIA PaCa-2; test: Cytotoxicity against human MIAPaCa2 cells after 48 hrs by MTT assay; settings: MIA PaCa-2, 48 h

Row | SMILES | pIC50 [1] | pIC50 [2] | pIC50 [3] | pIC50 [4] | pIC50 [5] | pIC50 [6]
1 | COc1ccc(-c2nc(-c3ccc(OC)c(OC4CCCC4)c3)no2)cc1 | 3.39 | 3.38 | 3.07 | < 3.00 | 4.11 | 3.38
2 | COc1ccc(-c2nc(-c3ccc(OC)c(OC4CCCC4)c3)no2)cc1OC | 3.77 | 3.37 | 3.09 | < 3.00 | 3.63 | 3.39
3 | COc1ccc(-c2nc(-c3cc(OC)c(OC)c(OC)c3)no2)cc1 | 3.67 | 4.00 | 3.49 | < 3.00 | 3.11 | 4.36
4 | COc1ccc(-c2nc(-c3cc(OC)c(OC)c(OC)c3)no2)cc1OC | < 3.00 | < 3.00 | < 3.00 | < 3.00 | 3.32 | < 3.00
5 | COc1cc(-c2noc(-c3cc(OC)c(OC)c(OC)c3)n2)cc(OC)c1OC | 3.16 | 3.24 | 3.39 | < 3.00 | 3.58 | < 3.00
6 | COc1ccc(-c2noc(C3CCNCC3)n2)cc1OC | 3.50 | 3.97 | 4.41 | 4.57 | 3.91 | 3.83
7 | CCOc1cc(-c2noc(C3CCNCC3)n2)ccc1OC | 3.78 | 3.78 | 3.81 | 3.76 | 3.74 | 3.95
8 | CCCCOc1cc(-c2noc(C3CCNCC3)n2)ccc1OC | 4.45 | 4.77 | 4.49 | 4.80 | 4.62 | 4.73
9 | COc1cc(-c2noc(C3CCNCC3)n2)ccc1OC1CCCC1 | 4.93 | 4.52 | 4.37 | 4.54 | 4.55 | 4.89
10 | COc1cc(-c2noc(C3CCNCC3)n2)cc(OC)c1OC | 3.76 | 3.95 | 3.92 | 3.49 | 3.91 | 4.10
11 | CCOC(=O)N1CCC(c2nc(-c3ccc(OC)c(OC4CCCC4)c3)no2)CC1 | 4.10 | 4.53 | 4.23 | 4.57 | 4.43 | 4.62
12 | COc1ccc(-c2noc(C3CCN(S(C)(=O)=O)CC3)n2)cc1OC1CCCC1 | 3.80 | 3.87 | 3.83 | 3.95 | 3.96 | 3.84
13 | COc1ccc(-c2nnc(C3CCNCC3)o2)cc1OC1CCCC1 | < 3.00 | 3.83 | 3.51 | 3.89 | 4.42 | 3.48
14 | COc1ccc(-c2nnc(C3CCNCC3)s2)cc1OC1CCCC1 | 4.89 | 4.71 | 4.72 | 4.75 | 5.04 | 4.99
15 | COc1ccc(-c2noc(C3CCCCC3)n2)cc1OC1CCCC1 | 4.10 | 3.97 | 4.03 | 4.24 | 3.86 | 4.19
16 | COc1ccc(-c2noc(C3CCCC3)n2)cc1OC1CCCC1 | 3.71 | 3.98 | 3.86 | 4.21 | 4.06 | 4.00
17 | COc1ccc(-c2noc(C3CCN(C(=O)OC(C)(C)C)CC3)n2)cc1OC | 3.97 | 3.80 | 4.07 | 4.28 | 3.89 | 4.49
18 | CCOc1cc(-c2noc(C3CCN(C(=O)OC(C)(C)C)CC3)n2)ccc1OC | 4.39 | 3.81 | 4.02 | 4.03 | 3.94 | 4.04
19 | CCCCOc1cc(-c2noc(C3CCN(C(=O)OC(C)(C)C)CC3)n2)ccc1OC | 3.89 | 3.99 | 4.04 | 4.04 | 4.06 | 3.98
20 | COc1cc(-c2noc(C3CCN(C(=O)OC(C)(C)C)CC3)n2)ccc1OC1CCCC1 | 3.50 | 4.01 | 3.97 | 4.42 | 4.39 | 4.67
21 | COc1cc(-c2noc(C3CCN(C(=O)OC(C)(C)C)CC3)n2)cc(OC)c1OC | 4.24 | 4.32 | 4.32 | 4.36 | 4.87 | 3.98
22 | COc1ccc(-c2noc(C3CCN(C(=O)OC(C)(C)C)CC3)n2)cc1OC1CCCC1 | 3.97 | 3.92 | 3.91 | 4.22 | 4.42 | 4.63
23 | COc1ccc(-c2noc(C(Cl)(Cl)Cl)n2)cc1OC1CCCC1 | 4.82 | 5.03 | 4.75 | 4.32 | 4.79 | 4.84
